Tested on: HarmGR195
Details: agonist; HarmGR195 expressed alone; SEM, N = 3; HBSS

`O=C(O)[C@@H]1CCCN1` [proline] was tested, and the EC50 was 43 ± 7 mM.

Source: PMC4817054, “Expansion of a bitter taste receptor family in a polyphagous insect herbivore” (Scientific Reports, 2016)
